US20020183290A1, “Adrenergic receptor antagonists selective for both alpha1A-and alpha1D-subtypes and uses therefor” (Recordati S.A., Chemical and Pharmaceutical Company, priority 2001, published 2002)
Where two headings read alike, the source gives them in different places.

System: conscious rats with partial urethral obstruction
Assay: Cystometry in conscious rats obstructed by partial urethra ligature (unstable-bladder contractions)
Format: in vivo, rat
Settings: for inhibition in vivo at 0.3 mg/kg / inhibition in vivo at 1 mg/kg / inhibition in vivo at 0.1 mg/kg: 2 min; for Amplitude of non-effective micturition contractions, After Treat. / Frequency (number) of non-effective micturition contractions, After Treat.: after treatment; for Activity as inhibitors of unstable-bladder contractions (in words): obstructed conscious rats, summary of Tables 1 and 2
From the text: A useful animal model system for measuring such pharmacological activity is, without limitation, cystometry in conscious rats with partial bladder-neck obstruction. […] This model is reported in the literature as related to LUTS occurring in patients having obstructive urethral syndromes (Michel, 2000, Drugs of Today. 386 (Supp. B2): 3-6)
In order to obtain a partial obstruction of the urethra, the method previously reported by Malgren (Nalgren et al., 1987, J. Urol. 137:1291-1294; 1988, Neurourol. Urodyn. 6:371), was followed with minor modifications (Guarneri et al., 1991, Pharmacol. Res. 24:263).
Female rats of the Sprague-Dawley strain [Crl:CD(SD)BR, from Charles River Italia, Calco, Como, Italy] weighing 225-275 g were used. The animals were maintained in constant temperature and humidity conditions, on a forced 12-hour light-dark cycle and with food and water ad libitum for at least one week before the experiment.
After being anaesthetized with 3 ml/kg i.p. equitensin (pentobarbital 1.215 g, chloral hydrate 5.312 g, magnesium sulphate 2.657 g, ethanol 12.5 ml, propylene glycol 49.5 ml, distilled water to 125 ml of final volume), the rats were placed in a supine position and the bladder and urethra were exposed via an incision in the shaven abdomens and gently pulling away the muscle portion. The urethra was cannulated with a polyethylene tube with an outside diameter of 1.22 mm, and the urinary bladder was then emptied and, via the cannula introduced through the urethra, filled with physiological saline. A silk (Ethicon 3/0) ligature was placed around the urethra with the cannula inside and the intraurethral cannula was then removed. The abdominal incision was sutured and, immediately after the operative procedure, antibiotic medication (penicillin G 200 000 I.U./kg i.p. and streptomycin 260 mg/kg i.p.) was performed.
Three weeks after the procedure for partially obstructing the urethra, the animals were prepared for cystometry by surgical insertion into the bladder of a catheter, through which the bladder was gradually filled.
The rats, anaesthetised with equitensin 3 ml/kg i.p., were placed in a supine position and, via an incision of about 10 mm in the abdominal wall, the urinary bladder was exposed and gently freed from surrounding tissues.
The urinary bladder was emptied manually and cannulated, via a small incision at the bladder top, with a polyethylene cannula (type PE-50, 0.58 mm I.D. ×0.96 mm O.D.), which was permanently secured to the bladder with silk thread.
The cannula was exposed through a subcutaneous tunnel in the retroscapular area, where it was fastened with a plastic adapter, in order to avoid the risk of removal by the animal. After washing the urinary bladder with physiological saline, the catheter was sealed using a small flame and the abdominal incision was sutured.
To allow evaluation of the effect of a test compound after intravenous administration, the jugular vein was cannulated with a polyethylene cannula (type PE-50, 0.58 mm I.D.×0.96 mm O.D.) filled with heparinised physiological saline. As for the bladder catheter, this cannula, too, was exteriorised, secured and sealed in the retroscapular area.
Two days after the operation, the rats, fasted overnight, were placed in Bollman's cages or in Bollman's cages modified so as to have an opening in the bottom to allow collection of urinated fluid.
After an adaptation period of 20 minutes, the free end of the bladder cannula was connected to a pressure transducer and a special apparatus which allowed infusion into the urinary bladder of physiological saline at 37° C. at a constant rate of 10 ml/hour. Intravesical pressure changes caused by bladder filling were recorded by the pressure transducer which was connected to a recording polygraph.
From the cystometrograms, the frequency and mean amplitude of spontaneous bladder contractions not inducing micturition, termed “unstable-bladder contractions” (UBC), within 2 minutes prior to micturition were evaluated. […]

[1] = obstructed rat, 0.3 mg/kg, 2 minutes before micturition, read-out: % inhibition of frequency of non-effective micturition contractions
[2] = obstructed rat, 2 minutes before micturition, read-out: % inhibition of frequency of non-effective micturition contractions
[3] = Rattus norvegicus, read-out: % inhibition of amplitude of non-effective micturition contractions
[4] = Rattus norvegicus, read-out: % inhibition of frequency of non-effective micturition contractions

SMILES | inhibition in vivo at 0.3 mg/kg [1] [%] | inhibition in vivo at 1 mg/kg [2] [%] | inhibition in vivo at 0.1 mg/kg [3] [%] | inhibition in vivo at 0.3 mg/kg [3] [%] | inhibition in vivo at 0.1 mg/kg [4] [%] | inhibition in vivo at 0.3 mg/kg [4] [%] | Amplitude of non-effective micturition contractions, After Treat. (0.1 mg/kg) [mmHg] | Frequency (number) of non-effective micturition contractions, After Treat. (0.1 mg/kg) | Amplitude of non-effective micturition contractions, After Treat. (0.3 mg/kg) [mmHg] | Frequency (number) of non-effective micturition contractions, After Treat. (0.3 mg/kg) | Activity as inhibitors of unstable-bladder contractions (in words) | inhibition in vivo at 0.1 mg/kg (obstructed rat, 0.1 mg/kg, 2 minutes before micturition, read-out: % inhibition of amplitude of non-effective micturition contractions) [%] | inhibition in vivo at 0.1 mg/kg (obstructed rat, 0.1 mg/kg, 2 minutes before micturition, read-out: % inhibition of frequency of non-effective micturition contractions) [%] | inhibition in vivo at 0.3 mg/kg (obstructed rat, 0.3 mg/kg, 2 minutes before micturition, read-out: % inhibition of amplitude of non-effective micturition contractions) [%] | inhibition in vivo at 1 mg/kg (obstructed rat, 2 minutes before micturition, read-out: % inhibition of amplitude of non-effective micturition contractions) [%] | Amplitude of non-effective micturition contractions, After Treat. (1.0 mg/kg) [mmHg] | Frequency (number) of non-effective micturition contractions, After Treat. (1.0 mg/kg)
COc1ccccc1N1CCN(CCCNC(=O)c2csc3c(=O)cc(C(F)(F)F)oc23)CC1 [Compound A, N-{3-[4-(2-methoxyphenyl)-1-piperazinyl]propyl}-7-keto-5-trifluoromethyl-7H-thieno [3,2-b]pyran-3-carboxamide] | 44 | 67 |  |  |  |  |  |  |  |  |  |  |  |  |  |  | 
COc1cc2nc(N3CCN(C(=O)c4ccco4)CC3)nc(N)c2cc1OC [Prazosin, prazosin] |  |  | 63 | 87 | 48 | 74 | 3.1 ± 0.9 | 2.8 ± 0.8 | 2.1 ± 1.5 | 2.3 ± 1.1 | marked and dose-dependent reduction |  |  |  |  |  | 
COc1cc2nc(N3CCN(C(=O)C4CCCO4)CC3)nc(N)c2cc1OC (stereo not drawn) [Terazosin, terazosin] | 65 | 93 |  |  |  |  | 6.6 ± 0.7 | 4.0 ± 0.3 | 3.7 ± 1.1 | 1.9 ± 0.5 | marked and dose-dependent reduction | 31 | 30 | 64 | 86 | 0.8 ± 0.8 | 0.3 ± 0.3
